# PubChem BioAssay (NCI)
#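 Dose response: 5 concentrations. Exposure: 48 h. Format: 96-well plates. Endpoint: linear interpolation; highest concentration if not reached. The concentration for 50% growth inhibition is given as GI50. TGI is the concentration that stops growth completely.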
# Key:
# Assay in all cases: NCI anticancer screen, dose series, 48 h
# A549 NSCLC = system: A549 NSCLC
# CAKI-1 renal = system: CAKI-1 renal
# COLO 205 colon = system: COLO 205 colon
# HL-60(TB) leukemia = system: HL-60(TB) leukemia
# NCI-H23 lung = system: NCI-H23 lung
# OVCAR-5 ovarian = system: OVCAR-5 ovarian
# RPMI-8226 leukemia = system: RPMI-8226 leukemia
# SN12C renal = system: SN12C renal
# SNB-19 CNS = system: SNB-19 CNS
# HT29 colon = system: HT29 colon
Structure (SMILES),GI50 (A549 NSCLC) [µM],TGI (A549 NSCLC) [µM],GI50 (CAKI-1 renal) [µM],TGI (CAKI-1 renal) [µM],GI50 (COLO 205 colon) [µM],TGI (COLO 205 colon) [µM],GI50 (HL-60(TB) leukemia) [µM],TGI (HL-60(TB) leukemia) [µM],GI50 (NCI-H23 lung) [µM],TGI (NCI-H23 lung) [µM],GI50 (OVCAR-5 ovarian) [µM],TGI (OVCAR-5 ovarian) [µM],GI50 (RPMI-8226 leukemia) [µM],TGI (RPMI-8226 leukemia) [µM],GI50 (SN12C renal) [µM],TGI (SN12C renal) [µM],GI50 (SNB-19 CNS) [µM],TGI (SNB-19 CNS) [µM],TGI (HT29 colon) [µM],GI50 (HT29 colon) [µM]
N#CC(C#N)=C/C=C/c1cccc([N+](=O)[O-])c1,2.29,16.8,0.457,4,1.26,3.26,0.345,5.38,1.59,4.26,2.24,7.96,1.59,9.6,3.23,30,3.35,16,,
COc1cc(C(N)=O)c(OC)c(OC)c1OC,,> 100,,,,> 100,,> 100,,> 100,,> 100,,> 100,,> 100,,> 100,> 100,
ClCc1ccc(Cn2cnc3ncnc(Cl)c32)cc1,1.81,4.13,2.01,4.42,1.9,3.78,,,16,30.6,6.26,19.7,1.28,2.67,3.61,14.9,1.72,3.15,3.59,1.22
NC(=O)c1ccc(-c2c3ccccc3cc3c2ccc2ccccc23)cc1,4.7,24.7,4.54,52.8,3.82,36.5,2.14,> 100,10.7,84.4,14.3,> 100,5.6,40.7,,,5.51,46.9,,
CC(C)c1cc2c(O)c(c1)Cc1cc(C(C)C)cc(c1O)Cc1cc(C(C)C)cc(c1O)Cc1cc(C(C)C)cc(c1O)Cc1cc(C(C)C)cc(c1O)Cc1cc(C(C)C)cc(c1O)C2,,> 100,,,,> 100,,> 100,,> 100,,> 100,,> 100,,> 100,,> 100,> 100,
CN(C)c1ccc(/C=N/Nc2ccc(-c3nc4ccccc4[nH]3)cc2)cc1,9.33,27.1,5,> 50,20.3,> 50,14.6,> 50,13.8,45.5,28.9,> 50,4.6,> 50,> 50,> 50,17.3,> 50,,
O=[N+]([O-])C(=C(c1ccccc1)c1ccccc1)[N+](=O)[O-],,51.3,,43.2,,24.9,,8.74,,52.8,,34.5,,6.43,,30.9,,31.3,,
CC(=O)Nc1[nH]c(=O)[nH]c(=O)c1N(C(C)=O)C(C)=O,,> 100,,> 100,,> 100,,> 100,,,,> 100,,> 100,,> 100,,> 100,> 100,
